# Patent publication US20250241892A1, “5-METHOXY-N,N-[…][…] THE TREATMENT OF PSYCHOMOTOR RETARDATION” (GH RESEARCH IRELAND LIMITED, priority 2022, published 2025)
# Experiment: Pharmacokinetics of 5-MeO-DMT and bufotenine after inhalation
# Format: in vivo, human
# Method: Blood samples were obtained at 1; 2; 4; 7; 10; 15; 20; 30; 45 min and 1; 1.5; 2; 3; 4 hours after administration.
# PK parameters were generated by algebraic analysis of the concentration versus time plots for each individual. The analysis was carried out using the software Phoenix WinNonlin 6.3.
structure (smiles),measurement,setting,value
COc1ccc2[nH]cc(CCN(C)C)c2c1 [5-MeO-DMT],Detectability in plasma,"3 hours after inhalation, whole dose range 6, 12, 18 mg",no longer detectable
same,Pharmacokinetic measurements with uptitration dosing schemes,compared with single doses,Substantially similar results
